Where “and” joins values, the source holds several entries; their conditions need not be identical. Equal entries are not always repeated.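 Assay format: 96-well plates, 48-hour exposure. Abbreviation: GI50, concentration required for 50% inhibition of growth. TGI denotes the concentration required for complete inhibition of growth.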
How the values were obtained:
Assay in all cases: NCI-60 cell line screen, 48 h
[1] = system: A498 renal
[2] = system: A549 NSCLC
[3] = system: CAKI-1 renal
[4] = system: COLO 205 colon
[5] = system: DU-145 prostate
[6] = system: HS 578T breast
[7] = system: NCI-H23 lung
[8] = system: SNB-75 CNS
[9] = system: UO-31 renal
[10] = system: ACHN renal
[11] = system: SF-295 CNS

SMILES: CSc1c(C(=O)Nc2ccc(C)cc2)c(N)[nH]c(=O)c1C#N
- TGI [1]: > 100 µM
- TGI [2]: > 100 µM
- TGI [3]: > 100 µM
- TGI [4]: > 100 µM
- TGI [5]: > 100 µM
- TGI [6]: > 100 µM
- TGI [7]: > 100 µM
- TGI [8]: > 100 µM
- TGI [9]: > 100 µM

SMILES: O=C1NC(=S)NC(=O)C1C(c1ccccc1[N+](=O)[O-])C1C(=O)NC(=S)NC1=O
- TGI [1]: > 100 µM
- TGI [2]: > 100 µM
- TGI [10]: > 100 µM
- TGI [3]: > 100 µM
- TGI [4]: > 100 µM
- TGI [5]: > 100 µM
- TGI [6]: > 100 µM
- TGI [7]: > 100 µM
- TGI [11]: > 100 µM
- TGI [9]: > 100 µM

SMILES: CC(C)/C(Cl)=N\OC(=O)NNc1ccccc1
- TGI [1]: > 100 µM
- TGI [2]: > 100 µM
- TGI [10]: 34.1 µM
- TGI [3]: 28.2 µM
- TGI [4]: 1.63 µM
- TGI [5]: > 100 µM
- TGI [6]: > 100 µM
- TGI [7]: > 100 µM
- TGI [11]: > 100 µM
- TGI [8]: > 100 µM

SMILES: OCc1ccccc1C1CSCSC1
- TGI [2]: > 100 µM
- TGI [10]: > 100 µM
- TGI [11]: > 100 µM
- TGI [8]: > 100 µM
- TGI [9]: > 100 µM

SMILES: CCOC(=O)C1CC(O)C(=O)N1C (stereo not given)
- TGI [2]: > 100 µM
- TGI [10]: > 100 µM
- TGI [3]: > 100 µM
- TGI [4]: > 100 µM
- TGI [5]: > 100 µM
- TGI [7]: > 100 µM
- TGI [11]: > 100 µM
- TGI [9]: > 100 µM

SMILES: C[C@]12CC/C(=N\O)C=C1CC[C@@H]1[C@@H]2CC[C@]2(C)C(=N/O)/C(=C/c3cccnc3)C[C@@H]12
- TGI [1]: 44.4 µM
- TGI [2]: 59.8 µM
- TGI [10]: 73.4 µM
- TGI [4]: 61.8 µM
- TGI [5]: > 100 µM
- TGI [6]: 18.6 µM
- TGI [7]: > 100 µM
- TGI [11]: 31.7 µM
- TGI [9]: 79.9 µM

SMILES: COc1cc([C@@H]2c3cc4c(cc3C[C@H]3COC(=O)[C@@H]32)OCO4)cc(OC)c1OC
- GI50 [1]: 0.0023 µM
- TGI [1]: 0.00969 µM and 0.0642 µM
- GI50 [2]: 0.00375 µM
- TGI [2]: > 50 µM
- GI50 [3]: 0.00463 µM
- TGI [3]: 1.72 µM
- GI50 [4]: 0.00627 µM and 0.0092 µM
- TGI [4]: 0.028 µM
- TGI [5]: 0.00914 µM
- TGI [6]: 0.00715 µM
- GI50 [7]: 0.00428 µM
- TGI [7]: 3.52 µM
- GI50 [11]: 0.00296 µM
- TGI [11]: 0.00833 µM
- GI50 [8]: 0.0042 µM
- TGI [8]: > 13.3 µM
- GI50 [9]: 0.00501 µM
- TGI [9]: 13.2 µM

SMILES: CC(C)=CC1C(C(=O)O)C1(C)C (stereo not given)
- TGI [1]: > 34.8 µM
- TGI [2]: > 750 µM
- TGI [3]: > 750 µM
- TGI [4]: > 750 µM
- TGI [7]: > 750 µM
- TGI [11]: > 750 µM
- TGI [8]: > 750 µM
- TGI [9]: > 750 µM

SMILES: Cc1cccc(N(CCC#N)S(=O)(=O)c2ccccc2)c1
- TGI [1]: > 100 µM
- TGI [2]: > 100 µM
- TGI [10]: > 100 µM
- TGI [3]: > 100 µM
- TGI [4]: > 100 µM
- TGI [5]: > 100 µM
- TGI [6]: > 100 µM
- TGI [7]: > 100 µM
- TGI [8]: > 100 µM
- TGI [9]: > 100 µM

SMILES: COc1ccc(CNc2nc3ccc(C(F)(F)F)cc3nc2-c2ccccc2)cc1OC
- TGI [2]: > 100 µM
- TGI [10]: > 100 µM
- TGI [4]: > 100 µM
- TGI [7]: > 100 µM
- TGI [11]: > 100 µM
- TGI [8]: > 100 µM
- TGI [9]: > 100 µM

SMILES: COc1cc2c(cc1OC)C(=O)/C(=C/c1cc(C)c(O)c(C)c1)C2
- TGI [1]: > 100 µM
- TGI [2]: > 100 µM
- TGI [10]: > 100 µM
- TGI [3]: > 100 µM
- TGI [4]: > 100 µM
- TGI [5]: > 100 µM
- TGI [6]: > 100 µM
- TGI [7]: > 100 µM
- TGI [8]: > 100 µM
- TGI [9]: > 100 µM

SMILES: CC(=O)/C(=C/n1c(=S)sc2ccccc21)C(=O)Nc1ccccc1C
- TGI [1]: > 100 µM
- TGI [2]: > 100 µM
- TGI [10]: > 100 µM
- TGI [3]: > 100 µM
- TGI [4]: > 100 µM
- TGI [5]: > 100 µM
- TGI [7]: > 100 µM
- TGI [11]: > 100 µM
- TGI [8]: > 100 µM
- TGI [9]: > 100 µM

SMILES: CC1=CC(=O)N(n2c(C)n[nH]c2=O)C1=O
- TGI [1]: > 100 µM
- TGI [2]: > 100 µM
- TGI [10]: > 100 µM
- TGI [3]: > 100 µM
- TGI [4]: > 100 µM
- TGI [5]: > 100 µM
- TGI [6]: > 100 µM
- TGI [7]: > 100 µM
- TGI [11]: > 100 µM
- TGI [9]: > 100 µM

SMILES: O=c1c2cc(I)ccc2[nH]c(=S)n1Cc1ccccc1
- TGI [1]: 54.3 µM
- TGI [2]: > 100 µM
- TGI [10]: > 100 µM
- TGI [4]: > 100 µM
- TGI [5]: > 100 µM
- TGI [6]: 58.9 µM
- TGI [7]: > 100 µM
- TGI [11]: > 100 µM
- TGI [8]: 54.4 µM
- TGI [9]: 1.83 µM

SMILES: N#Cc1c2c(c(Nc3ccc(F)cc3)n3c1nc1ccccc13)CCC2
- TGI [1]: 28.8 µM
- TGI [2]: 22.5 µM
- TGI [10]: 5.8 µM
- TGI [3]: 3.5 µM
- TGI [4]: 14.1 µM
- TGI [5]: 13.9 µM
- TGI [7]: 17.6 µM
- TGI [11]: 18.7 µM
- TGI [8]: 16.7 µM
- TGI [9]: 7.75 µM

SMILES: O=c1nc2c(c(-c3cccc(Cl)c3)[nH]1)COC/C2=C\c1cccc(Cl)c1
- TGI [1]: > 100 µM
- TGI [10]: > 100 µM
- TGI [3]: > 100 µM
- TGI [4]: > 100 µM
- TGI [5]: > 100 µM
- TGI [6]: > 100 µM
- TGI [7]: > 100 µM
- TGI [11]: > 100 µM
- TGI [8]: > 100 µM
- TGI [9]: > 100 µM

SMILES: O=C1C(Cl)N(c2ccccc2)C1c1c[nH]c2ccccc12 (stereo not given)
- TGI [2]: > 100 µM
- TGI [4]: > 100 µM
- TGI [7]: > 100 µM
- TGI [11]: > 100 µM
- TGI [8]: > 100 µM
- TGI [9]: > 100 µM

SMILES: COC(=O)C1CC(C=[N+](C)C)=C(SC)N1 (stereo not given)
- TGI [1]: > 100 µM
- TGI [10]: > 100 µM
- TGI [3]: > 100 µM
- TGI [4]: > 100 µM
- TGI [5]: > 100 µM
- TGI [6]: > 100 µM
- TGI [7]: > 100 µM
- TGI [11]: > 100 µM
- TGI [8]: > 100 µM
- TGI [9]: > 100 µM

SMILES: COC1C=CC23c4cc5c(cc4C(O)OC2CN(C)C3C1)OCO5 (stereo not given)
- TGI [1]: 9.89 µM
- TGI [2]: 9.49 µM
- TGI [10]: 10.1 µM
- TGI [3]: 24.8 µM
- TGI [4]: 2.99 µM
- TGI [7]: 27.4 µM
- TGI [11]: 9.59 µM
- TGI [9]: 9.3 µM

SMILES: CC(=O)CC(=O)c1cc2c(=O)oc(C)cc2oc1=O
- TGI [2]: > 37.5 µM
- TGI [10]: > 37.5 µM
- TGI [3]: > 37.5 µM
- TGI [4]: > 37.5 µM
- TGI [5]: > 37.5 µM
- TGI [7]: > 37.5 µM
- TGI [11]: > 37.5 µM
- TGI [8]: > 37.5 µM
- TGI [9]: > 37.5 µM

SMILES: Cc1cc2cccc(Cl)c2nc1C(=O)c1ccccc1
- TGI [2]: > 100 µM
- TGI [10]: > 100 µM
- TGI [3]: > 100 µM
- TGI [4]: > 100 µM
- TGI [7]: > 100 µM
- TGI [11]: 51.9 µM
- TGI [8]: 56.8 µM
- TGI [9]: > 100 µM

SMILES: COc1cccc(C2c3cc4c(cc3OC(N3CCCC3)C2C)OCO4)c1OC (stereo not given)
- TGI [2]: 25.5 µM
- TGI [10]: 16.8 µM
- TGI [3]: 3.15 µM
- TGI [4]: 19.4 µM
- TGI [5]: 11.5 µM
- TGI [6]: 11.1 µM
- TGI [11]: 12.4 µM
- TGI [9]: 7.51 µM

SMILES: C=CCCCC12CCCc3cccc(c31)NC2=O (stereo not given)
- TGI [1]: 45.6 µM
- TGI [2]: 51.2 µM
- TGI [10]: 86.4 µM
- TGI [4]: 40.4 µM
- TGI [7]: 36.8 µM
- TGI [11]: > 100 µM
- TGI [9]: 87.6 µM

— PubChem BioAssay (NCI)
